Measured values reported in patent US20250340519A1, “RADIOLABELLED COMPOUND” (OXFORD UNIVERSITY INNOVATION LIMITED, priority 2018, published 2025).
Values joined by “and” are separate entries in the source; they are usually repeats but may differ in a detail not shown here. Identical values can stand only once.

What was measured:
[1] = tested on: Panc-1 xenograft; experiment: Ex vivo biodistribution in Panc-1 xenograft bearing mice; settings: Panc-1 xenograft mice, 1 h p.i., individual animals
[2] = tested on: U87MG and U251MG xenografts; experiment: 18F-olaparib biodistribution in U87MG and U251MG tumour xenograft mouse models; assay type: in vivo, Balb/c nude mice; settings: both U87MG and U251MG tumours, 60-120 min p.i.
Procedure: U87MG and U251MG xenografts were generated in Balb/c nude mice. The xenograft models were administered various doses (0.5, 1.0, 4.0, and 8.0 μg) of ^18F-olaparib by tail vein injection. At 60-120 min post-injection, mice were sacrificed and organs were collected for biodistribution; see FIGS. 27(a) and (b), and FIG. 28(a). […] We predicted that the uptake for the U251MG xenografts would be greater, but in vivo there is no significant difference between the % ID/g for the U251MG or U87MG xenograft tumours.
A 20-fold excess of cold olaparib was injected via tail vein 60 m prior to 1 μg of ^18F-olaparib via tail vein. The mice were sacrificed at 60-120 min post-injection and organs were harvested.

[3] = tested on: Capan-1 xenograft; experiment: Ex vivo biodistribution in Capan-1 xenograft bearing mice; settings: for Ex vivo biodistribution Bone / Ex vivo biodistribution Kidney / Ex vivo biodistribution Large intestine / Ex vivo biodistribution Liver / Ex vivo biodistribution Muscle / Ex vivo biodistribution Pancreas / Ex vivo biodistribution Skin / Ex vivo biodistribution Small intestine / Ex vivo biodistribution Spleen / Ex vivo biodistribution Stomach: Capan-1 xenograft mice, 1 h p.i., individual animals; for tumour uptake (group mean): Capan-1 xenografts
Procedure: All animal procedures were performed in accordance with the UK Animals (Scientific Procedures) Act 1986 and with local ethical committee approval. Animals were housed in IVC cages in sex-matched groups up to 5 per cage, in an artificial day-night cycle facility, with ad libitum access to food and water. Tumour xenografts or allografts were generated by subcutaneous injection of PANC-1 or Capan-1 cell suspensions in the hind flank of balb/c nu/nu animals. CaNT xenografts were generated by harvesting CaNT tumours from donor animals, and injecting a tumour homogenate subcutaneously in the flank of wild type CBA/Carl mice. Tumours were irradiated (10 Gy, 2 Gy/min) using a 300 kV X-ray device.
Dynamic PET/CT images were acquired following an intravenous bolus administration of [^18F]-olaparib. Biodistribution studies, where selected tissues were harvested, were performed 1 h post injection. Some animals were also administered an excess of cold, unlabelled olaparib for evaluating the specificity of tumour uptake. EF5, a hypoxia-selective marker, was injected 2 h before culling of the animal. Digital autoradiography was performed on tumour sections. Image analysis was performed using PMOD.
Cells were harvested using trypsin, washed twice using PBS, and reconstituted in DMEM. Panc-1 or Capan-1 xenograft tumours were established in the right hind flank of female NOD/SCID mice (Charles River, UK) by subcutaneous injection of 1×10^6 cells in PBS:matrigel (150 μL). Tumour volumes (V) were calculated after calliper measurement using the following equation: V=(a^2×b)/2, where a is the width of the tumour and b the length (small and large diameters, respectively). The individual relative tumour volume (RTV) was defined as Vt/Vo, where Vt is the volume at a given time and Vo at the start of treatment. Animals were entered in in vivo studies when their tumour was at least 200 mm^3.
Two hours prior to PET/CT imaging, animals were exposed to X-irradiation of the tumour (10 Gy or sham) (see schedule in FIG. 13). Radiation was delivered using a Gulmay 320 kV X-irradiator; 2.0 Gy/min. Anaesthesia was maintained at 2.5% isoflurane throughout the duration of the irradiation, and animals were allowed to recover. To study the relationship of PARP1 expression, ^18F-olaparib uptake and hypoxia, animals were administered 0.6 μg in 200 μL (0.9% saline) intraperitoneally, one hour prior to PET/CT imaging. Naïve CBA/Carl mice, not bearing tumours, were not irradiated, nor was EF5 administered.
Dynamic PET/CT images were acquired using a VECTor ^4CT integrated PET/CT system. Mice were anaesthetised by 4% isoflurane gas (0.5 L/min O2) and placed on a custom-built imaging cradle in a prone position. Animals mice were intravenously injected with [^18F]-olaparib or (3-5 MBq, 8-11 GBq/μmol, through a tail vein catheter, and dynamic imaging was performed over 45-60 min after radiolabelled compound administration. PET acquisition (150 s per frame, using list mode acquisition) using an ultra-high resolution rat/mouse 1.8 mm collimator, followed by a cone-beam CT scan (55 kV, 0.19 mA) for anatomical reference and attenuation correction. Anaesthesia was maintained at 2.5% isoflurane throughout the duration of the image acquisition. PET images were reconstructed using U-SPECT-Rec3.22 software (MILabs, Utrecht, The Netherlands), applying a pixel-based algorithm with 8 subsets, 6 iterations and 0.8 mm voxel size for ^18F (energy window settings 477.9-584.1 keV).
After PET/CT image acquisition, animals were euthanized by cervical dislocation and selected organs, tissues and blood were removed. The amount of radioactivity in each organ was measured using a 2480 WIZARD^2 gamma counter (PerkinElmer). Counts per minute were converted into MBq using a calibration curve generated from known standards. Values were decay-corrected to the time of injection, and the percentage of the injected dose per gram (% ID/g) of each tissue was calculated.

- Ex vivo biodistribution Bone ([1]; tracer alone): 3.38 % ID/g and 4.54 % ID/g
- decrease of tumour % ID/g at 8.0 μg compared to 1.0 μg tracer [2]: > 50%
- Ex vivo biodistribution Skin ([3]; + block (excess cold olaparib)): 1.16 % ID/g
- tumour uptake (group mean) ([3]; excess cold olaparib): 1.00±0.17
- tumour uptake (group mean) ([3]; tracer alone): 2.59±0.32 % ID/g
SMILES: O=C(c1cc(Cc2n[nH]c(=O)c3ccccc23)ccc1[18F])N1CCN(C(=O)C2CC2)CC1 [[^18F]olaparib]
- Ex vivo biodistribution Kidney ([1]; + IR (10 Gy)): 10.0 % ID/g and 9.25 % ID/g and 10.6 % ID/g
- Ex vivo biodistribution Large intestine ([1]; + IR (10 Gy)): 27.5 % ID/g and 28.9 % ID/g and 16.2 % ID/g
- Ex vivo biodistribution Liver ([1]; + IR (10 Gy)): 25.1 % ID/g and 33.8 % ID/g and 45.7 % ID/g
- Ex vivo biodistribution Pancreas ([1]; + IR (10 Gy)): 13.6 % ID/g and 10.3 % ID/g and 11.4 % ID/g
- Ex vivo biodistribution Spleen ([1]; + IR (10 Gy)): 45.0 % ID/g and 20.5 % ID/g and 14.3 % ID/g
- Ex vivo biodistribution Stomach ([1]; + IR (10 Gy)): 4.15 % ID/g and 0.92 % ID/g and 0.87 % ID/g
- Ex vivo biodistribution Bone ([1]; + block (excess cold olaparib)): 1.06 % ID/g and 0.78 % ID/g and 0.80 % ID/g and 0.46 % ID/g
- Ex vivo biodistribution Kidney ([1]; + block (excess cold olaparib)): 13.1 % ID/g and 5.09 % ID/g and 3.98 % ID/g and 2.44 % ID/g
- Ex vivo biodistribution Large intestine ([1]; + block (excess cold olaparib)): 20.1 % ID/g and 13.3 % ID/g and 61.4 % ID/g and 12.7 % ID/g
- Ex vivo biodistribution Liver ([1]; + block (excess cold olaparib)): 29.1 % ID/g and 32.9 % ID/g and 22.4 % ID/g and 23.1 % ID/g
- Ex vivo biodistribution Pancreas ([1]; + block (excess cold olaparib)): 1.92 % ID/g and 2.29 % ID/g and 1.91 % ID/g and 1.79 % ID/g
- Ex vivo biodistribution Small intestine ([1]; + block (excess cold olaparib)): 89.9 % ID/g and 77.2 % ID/g and 96.4 % ID/g and 132 % ID/g
- Ex vivo biodistribution Spleen ([1]; + block (excess cold olaparib)): 1.62 % ID/g and 1.46 % ID/g and 1.24 % ID/g and 0.69 % ID/g
- Ex vivo biodistribution Stomach ([1]; + block (excess cold olaparib)): 1.44 % ID/g and 0.79 % ID/g and 0.46 % ID/g and 0.21 % ID/g
- Ex vivo biodistribution Kidney ([1]; tracer alone): 10.5 % ID/g and 7.95 % ID/g and 6.02 % ID/g and 7.04 % ID/g and 3.41 % ID/g and 3.66 % ID/g
- Ex vivo biodistribution Large intestine ([1]; tracer alone): 12.6 % ID/g and 30.5 % ID/g and 80.8 % ID/g and 27.0 % ID/g and 28.9 % ID/g and 6.61 % ID/g
- Ex vivo biodistribution Liver ([1]; tracer alone): 26.2 % ID/g and 34.6 % ID/g and 27.0 % ID/g and 21.0 % ID/g and 13.5 % ID/g and 18.0 % ID/g
- Ex vivo biodistribution Pancreas ([1]; tracer alone): 8.49 % ID/g and 9.38 % ID/g and 7.25 % ID/g and 5.52 % ID/g and 2.78 % ID/g and 4.24 % ID/g
- Ex vivo biodistribution Small intestine ([1]; tracer alone): 54.5 % ID/g and 58.1 % ID/g and 30.6 % ID/g and 31.9 % ID/g and 18.6 % ID/g and 26.6 % ID/g
- Ex vivo biodistribution Spleen ([1]; tracer alone): 17.5 % ID/g and 13.7 % ID/g and 11.3 % ID/g and 14.0 % ID/g and 7.36 % ID/g and 8.01 % ID/g
- Ex vivo biodistribution Stomach ([1]; tracer alone): 2.59 % ID/g and 3.53 % ID/g and 1.81 % ID/g and 1.80 % ID/g and 0.55 % ID/g and 0.60 % ID/g
- Ex vivo biodistribution Bone ([3]; + IR (10 Gy)): 0.31 % ID/g and 0.16 % ID/g and 0.19 % ID/g
- Ex vivo biodistribution Kidney ([3]; + IR (10 Gy)): 4.66 % ID/g and 1.03 % ID/g and 3.67 % ID/g
- Ex vivo biodistribution Large intestine ([3]; + IR (10 Gy)): 5.21 % ID/g and 3.30 % ID/g and 5.86 % ID/g
- Ex vivo biodistribution Liver ([3]; + IR (10 Gy)): 9.16 % ID/g and 5.93 % ID/g and 6.67 % ID/g
- Ex vivo biodistribution Muscle ([3]; + IR (10 Gy)): 0.63 % ID/g and 0.29 % ID/g and 0.48 % ID/g
- Ex vivo biodistribution Pancreas ([3]; + IR (10 Gy)): 1.89 % ID/g and 1.59 % ID/g and 1.84 % ID/g
- Ex vivo biodistribution Skin ([3]; + IR (10 Gy)): 0.67 % ID/g and 0.23 % ID/g and 0.33 % ID/g
- Ex vivo biodistribution Small intestine ([3]; + IR (10 Gy)): 15.58 % ID/g and 9.80 % ID/g and 19.97 % ID/g
- Ex vivo biodistribution Spleen ([3]; + IR (10 Gy)): 0.77 % ID/g and 0.73 % ID/g and 0.82 % ID/g
- Ex vivo biodistribution Stomach ([3]; + IR (10 Gy)): 0.38 % ID/g and 0.36 % ID/g and 0.64 % ID/g
- Ex vivo biodistribution Bone ([3]; + block (excess cold olaparib)): 2.17 % ID/g and 0.47 % ID/g and 1.27 % ID/g
- Ex vivo biodistribution Kidney ([3]; + block (excess cold olaparib)): 4.16 % ID/g and 1.26 % ID/g and 3.32 % ID/g
- Ex vivo biodistribution Large intestine ([3]; + block (excess cold olaparib)): 5.00 % ID/g and 2.91 % ID/g and 4.06 % ID/g
- Ex vivo biodistribution Liver ([3]; + block (excess cold olaparib)): 9.79 % ID/g and 3.62 % ID/g and 6.88 % ID/g
- Ex vivo biodistribution Muscle ([3]; + block (excess cold olaparib)): 0.88 % ID/g and 0.28 % ID/g and 0.65 % ID/g
- Ex vivo biodistribution Pancreas ([3]; + block (excess cold olaparib)): 10.22 % ID/g and 4.56 % ID/g and 10.82 % ID/g
- Ex vivo biodistribution Small intestine ([3]; + block (excess cold olaparib)): 46.04 % ID/g and 0.45 % ID/g and 11.70 % ID/g
- Ex vivo biodistribution Spleen ([3]; + block (excess cold olaparib)): 6.43 % ID/g and 2.80 % ID/g and 7.93 % ID/g
- Ex vivo biodistribution Stomach ([3]; + block (excess cold olaparib)): 0.94 % ID/g and 0.30 % ID/g and 0.49 % ID/g
- Ex vivo biodistribution Bone ([3]; tracer alone): 1.46 % ID/g and 0.98 % ID/g and 1.26 % ID/g and 3.08 % ID/g
- Ex vivo biodistribution Kidney ([3]; tracer alone): 4.32 % ID/g and 2.05 % ID/g and 4.91 % ID/g and 5.22 % ID/g
- Ex vivo biodistribution Large intestine ([3]; tracer alone): 4.99 % ID/g and 4.50 % ID/g and 4.14 % ID/g and 8.14 % ID/g
- Ex vivo biodistribution Liver ([3]; tracer alone): 11.78 % ID/g and 5.79 % ID/g and 10.32 % ID/g and 22.63 % ID/g
- Ex vivo biodistribution Muscle ([3]; tracer alone): 0.65 % ID/g and 0.45 % ID/g and 0.63 % ID/g and 1.44 % ID/g
- Ex vivo biodistribution Pancreas ([3]; tracer alone): 9.32 % ID/g and 8.12 % ID/g and 7.87 % ID/g and 13.16 % ID/g
- Ex vivo biodistribution Skin ([3]; tracer alone): 0.02 % ID/g and 0.55 % ID/g and 0.77 % ID/g and 1.54 % ID/g
- Ex vivo biodistribution Small intestine ([3]; tracer alone): 12.27 % ID/g and 17.29 % ID/g and 11.58 % ID/g and 13.70 % ID/g
- Ex vivo biodistribution Spleen ([3]; tracer alone): 9.84 % ID/g and 6.13 % ID/g and 8.40 % ID/g and 15.10 % ID/g
- Ex vivo biodistribution Stomach ([3]; tracer alone): 1.55 % ID/g and 0.63 % ID/g and 1.14 % ID/g and 3.42 % ID/g
